Results published in patent US20210236476A1, “METHODS OF TREATING CANCER WITH SMALL MOLECULE PD-L1 INHIBITORS” (CHEMOCENTRYX, INC., priority 2018, published 2021).
pIC50: −log10 of the molar value.

Molecular target: T1, human PD-L1 / human PD-1 interaction (Homo sapiens, UniProt Q9NZQ7)
T1 construct: purchased R&D (PD-L1); ACRO Biosystems (PD-1, biotin)
Test: ELISA of PD-1/PD-L1 interaction
Assay type: binding
Method: The activity of Compound 1.041 was assessed with an ELISA assay assessing the direct binding of recombinant PD-1 and PD-L1 proteins (FIG. 1A), a dimerization ELISA assay assessing the direct binding/dimerization of recombinant PD-L1 proteins (FIG. 1B), a cell based assay measuring the downstream signaling following the interaction of PD-1 and PD-L1 using a Luciferase reporter assay with cell lines overexpressing PD-1 and PD-L1 (FIG. 1C), and a mixed lymphocyte reaction assay measuring the functional outcome of upregulation of IFNg secretion, using allogenic primary human immune cells (FIG. 1D). Briefly, the mixed lymophocyte reaction assay was performed as follows: Dendritic cells and CD4+T Cells from unmatched donors were cultured together for 5 days in 96 well-flat bottom plates. Test compound was added as indicated at starting concentration of 1 μM with 1:4 dilutions with DMSO. Supernatants were harvested after 5 days of incubation and detection of human IFNg was performed by ELISA. […]
96 Well plates were coated with 1 μg/mL of human PD-L1 (obtained from R&D) in
PBS overnight at 4° C. The wells were then blocked with 2% BSA in PBS (WN) with 0.05% TWEEN-20 for 1 hour at 37° C. The plates were washed 3 times with PBS/0.05% TWEEN-20 and the compounds were serial diluted (1:5) in dilution medium and added to the ELISA plates. Human PD-1 and biotin 0.3μg/mL (ACRO Biosystems) were added and incubated for 1 hour at 37° C. then washed 3 times with PBS/0.05% TWEEN-20. A second block was performed with 2% BSA in PBS (WN)/0.05% TWEEN-20 for 10 min at 37° C. and was washed 3 times with PBS/0.05% TWEEN-20. Streptavidin—HRP was added for 1 hour at 37° C. then washed 3 times with PBS/0.05% TWEEN-20. TMB substrate was added and reacted for 20 min at 37° C. A stop solution (2 N aqueous H2SO4) was added. The absorbance was read at 450 nm using a micro-plate spectrophotometer.

T1 sequence (Q9NZQ7 19-239 limits assumed): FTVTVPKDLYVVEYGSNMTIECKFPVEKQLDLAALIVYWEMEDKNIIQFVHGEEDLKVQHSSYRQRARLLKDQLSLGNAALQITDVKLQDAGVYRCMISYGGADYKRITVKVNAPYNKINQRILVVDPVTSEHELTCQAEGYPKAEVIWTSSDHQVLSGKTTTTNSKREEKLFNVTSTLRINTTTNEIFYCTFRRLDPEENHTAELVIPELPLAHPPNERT

Row | Compound | pIC50
1 | CCOc1cc(O[C@H]2CCc3c(-c4cccc(OCCCN5[C@H](C)CC[C@H]5C)c4C)cccc32)c(Cl)cc1CN1CCCC[C@H]1C(=O)O | 6.30 to 8.30
2 | N#Cc1cncc(COc2cc(O[C@H]3CCc4c(-c5cccc(OCCCN6CC7(C6)CC(F)(F)C7)c5Cl)cccc43)c(Cl)cc2CN[C@@H]2CCC[C@@H]2O)c1 | > 8.30
3 | CC(C)OC(=O)[C@](C)(CO)NCc1cc(Cl)c(O[C@H]2CCc3c(-c4cccc(OCCCN5CC(O)C5)c4Cl)cccc32)cc1OCc1cncc(C#N)c1 | > 8.30
4 | C[C@@](CO)(NCc1cc(Cl)c(O[C@H]2CCc3c(-c4cccc(OCCCN)c4Cl)cccc32)cc1OCc1cncc(C#N)c1)C(=O)O | > 8.30
5 | Cc1c(OCCCN2CCC(O)CC2)cccc1-c1cccc2c1CC[C@@H]2Oc1cc(OCc2cncc(C#N)c2)c(CN[C@@H]2CCC[C@H]2O)cc1Cl | > 8.30
6 | C[C@@H](O)[C@H](NCc1cc(Cl)c(O[C@H]2CCc3c(-c4cccc(OCCCN5CCC(O)CC5)c4Cl)cccc32)cc1OCc1cncc(C#N)c1)C(N)=O | > 8.30
7 | N#Cc1cncc(COc2cc(O[C@H]3CCc4c(-c5cccc(OCCCN6CC7(C6)CC(F)(F)C7)c5Cl)cccc43)c(Cl)cc2CN[C@@H]2CCC[C@H]2O)c1 | > 8.30
8 | C[C@@](CO)(NCc1cc(Cl)c(OC2CCc3c(-c4cccc(OCCCN5CC(O)C5)c4Cl)cc(F)cc32)cc1OCc1cncc(C#N)c1)C(=O)O (some centres unmarked) | > 8.30
9 | Cc1c(OCCCN2CCC(O)CC2)cccc1-c1cccc2c1CC[C@@H]2Oc1cc(OCc2cncc(C#N)c2)c(CN[C@@H](CNC(=N)N)C(=O)O)cc1Cl | > 8.30
10 | N#Cc1cncc(COc2cc(O[C@H]3CCc4c(-c5cccc(OCCCN6CC7(CC(O)C7)C6)c5Cl)cccc43)c(Cl)cc2CN[C@@H]2CCC[C@@H]2O)c1 | > 8.30
11 | N#Cc1cncc(COc2cc(O[C@H]3CCc4c(-c5cccc(OCCCN6CCC(F)CC6)c5Cl)cccc43)c(Cl)cc2CN2CC(C(=O)O)C2)c1 | > 8.30
12 | N#Cc1cncc(COc2cc(O[C@H]3CCc4c(-c5cccc(OCCCN6CC(O)C6)c5Cl)cccc43)c(Cl)cc2CN2CC(O)C2)c1 | > 8.30
13 | CC(CO)(NCc1cc(Cl)c(O[C@H]2CCc3c(-c4cccc(OCCCN5CCOCC5)c4Cl)cccc32)cc1OCc1cncc(C#N)c1)C(=O)O (some centres unmarked) | > 8.30
14 | CCOc1cc(O[C@H]2CCc3c(-c4cccc(OCCCN5CCC[C@@H]5C(C)C)c4C)cccc32)c(Cl)cc1CNC[C@@H]1CCC(=O)N1 | > 8.30
15 | N#Cc1cncc(COc2cc(O[C@H]3CCc4c(-c5cccc(OCCCN6CCCCC6)c5Cl)cccc43)c(Cl)cc2CN[C@@H]2CCCC[C@@H]2O)c1 | > 8.30
16 | N#Cc1cncc(COc2cc(O[C@H]3CCc4c(-c5cccc(OCCCN6CC7(CC(F)C7)C6)c5Cl)cccc43)c(Cl)cc2CN[C@H]2CCC[C@H]2O)c1 | > 8.30
17 | Cc1c(OCCCN2CCC(CO)CC2)cccc1-c1cccc2c1CC[C@@H]2Oc1cc(OCc2cncc(C#N)c2)c(CN[C@H](C(=O)O)[C@@H](C)O)cc1Cl | > 8.30
18 | Cc1c(OCCCN2CCC[C@@H](O)C2)cccc1-c1cccc2c1CC[C@@H]2Oc1cc(OCc2cncc(C#N)c2)c(CN[C@H](C(=O)O)[C@@H](C)O)cc1Cl | > 8.30
19 | CCOc1cc(O[C@H]2CCc3c(-c4cccc(OCCCN5CCC5(C)C)c4C)cccc32)c(Cl)cc1CNCCC(=O)OC(C)C | 6.30 to 8.30
20 | N#Cc1cncc(COc2cc(O[C@H]3CCc4c(-c5cccc(OCCCN6CCC(O)CC6)c5Cl)cccc43)c(Cl)cc2CNC(CO)CO)c1 | > 8.30
21 | C[C@@H](O)[C@H](NCc1cc(Cl)c(O[C@H]2CCc3c(-c4cccc(OCCCN5CCC(O)CC5)c4F)cccc32)cc1OCc1cncc(C#N)c1)C(=O)O | > 8.30
22 | Cc1c(OCCCN2CCC(F)CC2)cccc1-c1cccc2c1CC[C@@H]2Oc1cc(OCc2cncc(C(N)=O)c2)c(CN(C)CCC(=O)O)cc1Cl | > 8.30
23 | CCOC(=O)[C@](C)(CO)NCc1cc(Cl)c(O[C@H]2CCc3c(-c4cccc(OCCCN5CC(O)C5)c4Cl)cccc32)cc1OCc1cncc(C#N)c1 | > 8.30
24 | Cc1c(OCCCN2CCC(O)CC2)cccc1-c1cccc2c1CC[C@@H]2Oc1cc(OCc2cc(C#N)cc(C#N)c2)c(CN[C@@H](CO)C(=O)O)cc1Cl | > 8.30
25 | Cc1c(OCCCN2CCC(C)(O)CC2)cccc1-c1cccc2c1CC[C@@H]2Oc1cc(OCc2cc(C#N)cc(C#N)c2)c(CNC[C@@H]2CCC(=O)N2)cc1Cl | > 8.30
26 | Cc1c(OCCCN2CCC(O)CC2)cccc1-c1cccc2c1CC[C@@H]2Oc1cc(OCc2cncc(C#N)c2)c(CNC2(C(=O)O)CCC2)cc1Cl | > 8.30

Next, values leading:

Row | pIC50 | Compound
27 | > 8.30 | Cc1c(OCCCN2CC(C)(O)C2)cccc1-c1cccc2c1CC[C@@H]2Oc1cc(OCc2cncc(C#N)c2)c(CNCC2CCC(=O)N2)cc1Cl (some centres unmarked)
28 | > 8.30 | Cc1c(OCCCN2CC3(CCC3)C2)cccc1-c1cccc2c1CC[C@@H]2Oc1cc(OCc2cc(C#N)cc(C#N)c2)c(CNC[C@@H]2CCC(=O)N2)cc1Cl
29 | > 8.30 | N#Cc1cncc(COc2cc(O[C@H]3CCc4c(-c5cccc(OCCCN6CCC(F)CC6)c5Cl)cccc43)c(Cl)cc2CN[C@@H]2CCC[C@@H]2O)c1
30 | > 8.30 | N#Cc1cncc(COc2cc(O[C@H]3CCc4c(-c5cccc(OCCCN6CC7(CC(F)C7)C6)c5Cl)cccc43)c(Cl)cc2CN[C@@H]2CCC[C@H]2O)c1
31 | > 8.30 | N#Cc1cncc(COc2cc(O[C@H]3CCc4c(-c5cccc(OCCCN6CC(O)C6)c5Cl)cccc43)c(Cl)cc2CN2CCCC3(C2)NC(=O)NC3=O)c1 (some centres unmarked)
32 | > 8.30 | Cc1c(OCCCN2CCC(O)CC2)cccc1-c1cccc2c1CC[C@@H]2Oc1cc(OCc2cncc(C#N)c2)c(CNCc2cn(C)cn2)cc1Cl
33 | > 8.30 | Cc1c(OCCCN2CCC[C@H](O)C2)cccc1-c1cccc2c1CC[C@@H]2Oc1cc(OCc2cncc(C#N)c2)c(CN[C@H](C(=O)O)[C@@H](C)O)cc1Cl
34 | > 8.30 | N#Cc1cncc(COc2cc(O[C@H]3CCc4c(-c5cccc(OCCCN6CCC(F)CC6)c5Cl)cccc43)c(Cl)cc2CN[C@@H]2CCOC[C@@H]2O)c1
35 | > 8.30 | N#Cc1cncc(COc2cc(O[C@H]3CCc4c(-c5cccc(OCCCN6CC7(CC(F)C7)C6)c5Cl)cccc43)c(Cl)cc2CN[C@H]2CCC[C@@H]2O)c1
36 | > 8.30 | C[C@@H](O)[C@H](NCc1cc(Cl)c(O[C@H]2CCc3c(-c4cccc(OCCCN5CCC(O)CC5)c4Cl)cccc32)cc1OCc1cncc(C#N)c1)C(=O)O
37 | > 8.30 | Cc1c(OCCCN2CCC(O)CC2)cccc1-c1cccc2c1CC[C@@H]2Oc1cc(OCc2cncc(C#N)c2)c(CN[C@H](C(N)=O)[C@@H](C)O)cc1Cl
38 | > 8.30 | CC(C)N1CCC(COc2cccc(-c3cccc4c3CC[C@@H]4Oc3cc(OCc4cncc(C#N)c4)c(CNC[C@@H]4CCC(=O)N4)cc3Cl)c2Cl)C1 (some centres unmarked)
39 | > 8.30 | N#Cc1cncc(COc2cc(O[C@H]3CCc4c(-c5cccc(OCCCN6CCC6)c5Cl)cccc43)c(Cl)cc2CNC[C@H]2CCC(=O)N2)c1
40 | > 8.30 | Cc1c(OCCCN2CCC(O)CC2)cccc1-c1cccc2c1CC[C@H]2Oc1cc(OCc2cncc(C#N)c2)c(CN[C@H](C(=O)O)[C@@H](C)O)cc1Cl
41 | > 8.30 | Cc1c(OCCCN2CCC(O)CC2)cccc1-c1cccc2c1CC[C@@H]2Oc1cc(OCc2cncc(C#N)c2)c(CN[C@@H]2CCCC[C@H]2O)cc1Cl
42 | > 8.30 | Cc1c(OCCCN2CCC(F)CC2)cccc1-c1cccc2c1CC[C@@H]2Oc1cc(OCc2cc(C#N)cc(C#N)c2)c(CN[C@H]2CCC[C@@H]2O)cc1Cl
43 | > 8.30 | N#Cc1cncc(COc2cc(O[C@H]3CCc4c(-c5cccc(OCCCN6CCC(O)CC6)c5Cl)cccc43)c(Cl)cc2CNCC2CCC(=O)N2)c1 (some centres unmarked)
44 | > 8.30 | CCOc1cc(O[C@H]2CCc3c(-c4cccc(OCCCN(C)C(C)C)c4C)cccc32)c(Cl)cc1CNC[C@@H]1CCC(=O)N1
